The results in this text go back to patent US20240108634A1, “COMPOSITIONS AND METHODS FOR INHIBITING YAP” (The United States Government as represented by the …, priority 2021, published 2024).

This test has as its target T1, YAP-TEAD interaction (Homo sapiens, UniProt P46937).
T1 construct: expressed in transfected cells; host or cells: LN229
Briefly: Co-immunoprecipitation of myc-TEAD with HA-YAP from treated LN229 cells. Type of test: cell-based. Conditions: LN229 GBM cells, 24 h. On the procedure: FIGS. 1A-G show the identification of a YAP1-TEAD1 binding interface inhibitor. […] The Gal4 DBD was fused to residues 50-171 of human YAP1 and the Gal4 AD was fused to residues 194-411 of human TEAD1. These fusions were expressed in yeast containing reporters harboring Gal4 upstream activating sequences (UAS). […] Yeast expressing either p53-DBD and SV40 large T antigen-AD fusions or YAP1-DBD and TEAD1-AD fusions were plated on selective media. Compounds were pinned onto the plate surfaces by robotic transfer and subsequently examined for halo formation (indicated by red circles). Compounds inhibiting YAP1-TEAD1 mediated growth on selective media while having no effect on p53-T antigen mediated yeast growth were considered specific. Compounds which blocked the growth of both strains were considered nonspecific and were classified as having general antifungal properties. […] His-tagged YAP (amino acids 50-171 of Accession No. NP_006097) was used in a GST pull-down assay using GST-TEAD (amino acids 194-411 of Accession No. NP_068780) immobilized on glutathione resin. Pull-down products were analyzed by SDS-PAGE and silver staining. […] Cells treated with antimycin A are shown as a negative control. […] Raw binding sensorgrams obtained at each concentration were fitted to a 1:1 binding model and Kon, Koff and KD were calculated by simultaneous non-linear regression analyses.
Protein and mRNA analyses, immunoprecipitation, in vitro bead-coupled inhibitor binding assays and HPLC analyses. […] Antigen-antibody complexes were detected using appropriate horseradish peroxidase-conjugated secondary antibodies (GE Healthcare) and enhanced chemiluminescence (Amersham ECL Prime). […] For quantitative RT-PCR, extraction of RNA was performed using Trizol® (Life Technologies). Total RNA was then quantified and integrity assessed using an Agilent 2100 Bioanalyzer (Agilent Technology). […] SYBR® Green quantitative PCR (Millipore Sigma) was performed in triplicate in 96-well optical plates on an ABI Prism 7000 Sequence Detection System (Life Technologies) according to the manufacturer's instructions. […]

T1 sequence (P46937 whole entry): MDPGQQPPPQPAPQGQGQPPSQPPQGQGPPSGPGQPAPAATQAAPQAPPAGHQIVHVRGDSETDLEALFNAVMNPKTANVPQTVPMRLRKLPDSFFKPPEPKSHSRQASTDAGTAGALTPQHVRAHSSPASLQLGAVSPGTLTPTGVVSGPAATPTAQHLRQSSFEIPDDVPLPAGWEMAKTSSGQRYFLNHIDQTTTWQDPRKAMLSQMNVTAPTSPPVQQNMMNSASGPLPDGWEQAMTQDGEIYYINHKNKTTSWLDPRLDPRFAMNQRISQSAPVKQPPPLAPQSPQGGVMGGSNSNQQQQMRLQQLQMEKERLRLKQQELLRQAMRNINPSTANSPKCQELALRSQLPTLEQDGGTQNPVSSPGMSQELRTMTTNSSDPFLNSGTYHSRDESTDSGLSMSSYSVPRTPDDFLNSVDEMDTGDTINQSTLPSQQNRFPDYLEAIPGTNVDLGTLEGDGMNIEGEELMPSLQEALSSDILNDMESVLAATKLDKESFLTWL

In the case of `COc1ccc(-c2cc(-c3ccccc3)nc3c2CC(=O)Nc2ccccc2-3)cc1OC` [NSC682769], the “Association of YAP1 with TEAD1 in YAP1 immunoprecipitates” value was “blocked the association of YAP1 with TEAD1”.
